Results taken from patent US6737383B1, “Herbicidal oxadiazolidines” (priority 1999, dated 2004).

How the values were obtained:
wild oat = assay: Test B pre/postemergence wild oat; assay type: in vivo, Avena fatua
Procedure, shortened: (§1)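 Herbicidal effect was estimated by eye on a ten-point control scale after plants spent twelve to sixteen days in a greenhouse following soil or foliar treatment. Foliar sprays targeted plants at one to four leaves; all doses were formulated in a non-phytotoxic solvent with surfactant.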

purple nutsedge = assay: Test B pre/postemergence purple nutsedge; assay type: in vivo, Cyperus rotundus
Procedure, shortened: as §1

soybean = assay: Test B pre/postemergence soybean; assay type: in vivo, Glycine max
Procedure, shortened: as §1

blackgrass = assay: Test B pre/postemergence blackgrass; assay type: in vivo, Alopecurus myosuroides
Procedure, shortened: as §1

velvetleaf = assay: Test B pre/postemergence velvetleaf; assay type: in vivo, Abutilon theophrasti
Procedure, shortened: as §1

corn = assay: Test B pre/postemergence corn; assay type: in vivo, Zea mays
Procedure, shortened: as §1

crabgrass = assay: Test B pre/postemergence crabgrass; assay type: in vivo, Digitaria sanguinalis
Procedure, shortened: as §1

giant foxtail = assay: Test B pre/postemergence giant foxtail; assay type: in vivo, Setaria faberii
Procedure, shortened: as §1

pigweed = assay: Test B pre/postemergence pigweed; assay type: in vivo, Amaranthus retroflexus
Procedure, shortened: as §1

rice = assay: Test B flood test rice; assay type: in vivo, Oryza sativa
Procedure, shortened: (§2)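 Flood test on plants grown to the 2-leaf stage; treated plants kept in greenhouse twelve to sixteen days, then visually rated against controls on a 0 (no effect) to 10 (complete control) scale.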

duck salad = assay: Test B flood test duck salad; assay type: in vivo, Heteranthera limosa
Procedure, shortened: as §2

wheat = assay: Test B pre/postemergence wheat; assay type: in vivo, Triticum aestivum
Procedure, shortened: as §1

bedstraw = assay: Test B pre/postemergence bedstraw; assay type: in vivo, Galium aparine
Procedure, shortened: as §1

cocklebur = assay: Test B pre/postemergence cocklebur; assay type: in vivo, Xanthium strumarium
Procedure, shortened: as §1

sugar beet = assay: Test B pre/postemergence sugar beet; assay type: in vivo, Beta vulgaris
Procedure, shortened: as §1

surinam grass = assay: Test B pre/postemergence surinam grass; assay type: in vivo, Brachiaria decumbens
Procedure, shortened: as §1

[1] = Postemergence, Rate 62 g/ha, scale 0 to 10, 0 is no effect, 10 is complete control
[2] = Postemergence, Rate 250 g/ha, scale 0 to 10, 0 no effect, 10 complete control
[3] = Preemergence, Rate 125 g/ha, scale 0 to 10 (0 no effect, 10 complete control)
[4] = Preemergence, Rate 250 g/ha, scale of 0 to 10 where 0 is no effect and 10 is complete control
[5] = Preemergence, Rate 500 g/ha, scale 0 (no effect) to 10 (complete control)
[6] = Rate 125 g/ha, Postemergence, scale 0 to 10, 0 no effect, 10 complete control
[7] = Preemergence, Rate 62 g/ha, scale 0 to 10, 0 is no effect, 10 is complete control
[8] = Rate 500 g/ha, Postemergence, 0 to 10 scale (0 no effect, 10 complete control)
[9] = Rate 125 g/ha, Postemergence section (flood test species), scale 0 to 10, 0 no effect, 10 complete control
[10] = Rate 500 g/ha, Postemergence section of Table B, 0 to 10 scale (0 no effect, 10 complete control)
[11] = flood test, listed under Postemergence, Rate 250 g/ha, scale 0 to 10, 0 no effect, 10 complete control

CC(C)N(C(=O)n1oc(=O)n(-c2ccc(Cl)cc2C(F)(F)F)c1=O)c1ccc(F)cc1 [Compound 20]
2: Blackgrass plant response rating (blackgrass; [8]) | Plant response rating, Crabgrass (crabgrass; [3]) | Plant response rating, Redroot pigweed (pigweed; [3]) | Rice plant response rating (rice; [10]) | Plant response rating, Bedstraw (bedstraw; [4]) | Plant response rating, Sugarbeets (sugar beet; [4])
0: Wild oats plant response rating (wild oat; [1]) | Wild oats plant response rating (wild oat; [2]) | Plant response rating, Wild oats (wild oat; [3]) | Plant response rating, Wild oats (wild oat; [4]) | Wild oats plant response rating (wild oat; [5]) | Wild oats plant response rating (wild oat; [6]) | Nutsedge plant response rating (purple nutsedge; [1]) | Nutsedge plant response rating (purple nutsedge; [2]) | Plant response rating, Nutsedge (purple nutsedge; [7]) | Plant response rating, Nutsedge (purple nutsedge; [3]) | Plant response rating, Nutsedge (purple nutsedge; [4]) | Nutsedge plant response rating (purple nutsedge; [5]) | Nutsedge plant response rating (purple nutsedge; [6]) | Nutsedge plant response rating (purple nutsedge; [8]) | Plant response rating, Soybean (soybean; [7]) | Plant response rating, Soybean (soybean; [3]) | Plant response rating, Soybean (soybean; [4]) | Soybean plant response rating (soybean; [5]) | Blackgrass plant response rating (blackgrass; [1]) | Blackgrass plant response rating (blackgrass; [2]) | Plant response rating, Blackgrass (blackgrass; [7]) | Blackgrass plant response rating (blackgrass; [6]) | Velvetleaf plant response rating (velvetleaf; [1]) | Velvetleaf plant response rating (velvetleaf; [2]) | Plant response rating, Velvetleaf (velvetleaf; [7]) | Plant response rating, Velvetleaf (velvetleaf; [3]) | Plant response rating, Velvetleaf (velvetleaf; [4]) | Velvetleaf plant response rating (velvetleaf; [5]) | Velvetleaf plant response rating (velvetleaf; [6]) | Corn plant response rating (corn; [1]) | Corn plant response rating (corn; [2]) | Plant response rating, Corn (corn; [7]) | Plant response rating, Corn (corn; [3]) | Plant response rating, Corn (corn; [4]) | Corn plant response rating (corn; [5]) | Corn plant response rating (corn; [6]) | Corn plant response rating (corn; [8]) | Crabgrass plant response rating (crabgrass; [1]) | Crabgrass plant response rating (crabgrass; [6]) | Giant foxtail plant response rating (giant foxtail; [1]) | Giant foxtail plant response rating (giant foxtail; [6]) | Plant response rating, Redroot pigweed (pigweed; [7]) | Rice plant response rating (rice; [1]) | Rice plant response rating (rice; [9]) | Rice plant response rating (rice; [11]) | Ducksalad plant response rating (duck salad; [1]) | Ducksalad plant response rating (duck salad; [9]) | Ducksalad plant response rating (duck salad; [10]) | Ducksalad plant response rating (duck salad; [11]) | Wheat plant response rating (wheat; [1]) | Wheat plant response rating (wheat; [2]) | Plant response rating, Wheat (wheat; [7]) | Plant response rating, Wheat (wheat; [3]) | Plant response rating, Wheat (wheat; [4]) | Wheat plant response rating (wheat; [5]) | Wheat plant response rating (wheat; [6]) | Plant response rating, Bedstraw (bedstraw; [7]) | Plant response rating, Bedstraw (bedstraw; [3]) | Cocklebur plant response rating (cocklebur; [1]) | Cocklebur plant response rating (cocklebur; [2]) | Plant response rating, Cocklebur (cocklebur; [7]) | Plant response rating, Cocklebur (cocklebur; [3]) | Plant response rating, Cocklebur (cocklebur; [4]) | Cocklebur plant response rating (cocklebur; [5]) | Cocklebur plant response rating (cocklebur; [6]) | Cocklebur plant response rating (cocklebur; [8]) | Sugarbeets plant response rating (sugar beet; [1]) | Plant response rating, Sugarbeets (sugar beet; [7]) | Plant response rating, Sugarbeets (sugar beet; [3]) | Sugarbeets plant response rating (sugar beet; [6]) | B. signalgrass plant response rating (surinam grass; [1]) | B. signalgrass plant response rating (surinam grass; [2]) | Plant response rating, B. signalgrass (surinam grass; [7]) | Plant response rating, B. signalgrass (surinam grass; [3]) | Plant response rating, B. signalgrass (surinam grass; [4]) | B. signalgrass plant response rating (surinam grass; [5]) | B. signalgrass plant response rating (surinam grass; [6]) | B. signalgrass plant response rating (surinam grass; [8])
5: Blackgrass plant response rating (blackgrass; [5]) | Plant response rating, Giant foxtail (giant foxtail; [3]) | Bedstraw plant response rating (bedstraw; [8])
9: Giant foxtail plant response rating (giant foxtail; [5]) | Redroot pigweed plant response rating (pigweed; [5])
4: Plant response rating, Redroot pigweed (pigweed; [4]) | Redroot pigweed plant response rating (pigweed; [8]) | Bedstraw plant response rating (bedstraw; [2])
1: Plant response rating, Blackgrass (blackgrass; [3]) | Plant response rating, Blackgrass (blackgrass; [4]) | Plant response rating, Crabgrass (crabgrass; [7]) | Giant foxtail plant response rating (giant foxtail; [2]) | Giant foxtail plant response rating (giant foxtail; [8])
7: Crabgrass plant response rating (crabgrass; [5]) | Crabgrass plant response rating (crabgrass; [8]) | Plant response rating, Giant foxtail (giant foxtail; [4]) | Sugarbeets plant response rating (sugar beet; [5])
6: Plant response rating, Crabgrass (crabgrass; [4]) | Bedstraw plant response rating (bedstraw; [5])
3: Soybean plant response rating (soybean; [1]) | Soybean plant response rating (soybean; [2]) | Soybean plant response rating (soybean; [6]) | Crabgrass plant response rating (crabgrass; [2]) | Plant response rating, Giant foxtail (giant foxtail; [7]) | Redroot pigweed plant response rating (pigweed; [1]) | Redroot pigweed plant response rating (pigweed; [2]) | Redroot pigweed plant response rating (pigweed; [6]) | Bedstraw plant response rating (bedstraw; [1]) | Bedstraw plant response rating (bedstraw; [6])
